One may read the IC50 as the point on the concentration scale where inhibition reaches its midpoint. The EC50 is the midpoint of the concentration-response curve.

The values below come from ChEMBL document CHEMBL1201862, “PubChem BioAssay data set” (2004).

Test [1] in a line: cytotoxicity in HEK-293T cells, dose response, cytotoxicity control for BCR NF-kB inhibitor project, luminescence, B-cell screen hits (AID 489021).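 Further: HEK-293T cells carrying an NF-kB luciferase reporter; cells exposed to compound for about 14 hours before viability readout.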 The test is classed as functional, cell-based.
For test [2], the target named is 26S proteasome non-ATPase regulatory subunit 14 (Homo sapiens, UniProt O00487). The experiment in a line: inhibition of proteasome subunit RPN11 – biochemical, fluorescence polarization, uHTS hits, confirmation (AID 602368). The test is classed as functional. A general note: Fluorescence polarisation rises when a labelled molecule tumbles more slowly, as on binding a larger partner.

Test [3] addresses 72 kDa type IV collagenase (Homo sapiens, UniProt P08253). The experiment in a line: Dose Response validation of uHTS RPN11 inhibitor hits using a MMP-2 Fluorescence assay. The test is classed as functional.
Test [4] has as its target Prothrombin (Bos taurus, UniProt P00735). The experiment in a line: thrombin inhibition, dose response, biochemical, fluorescence polarization, uHTS hits (AID 602369). The test is classed as functional.
Test [5] deals with T1, Caspase-3 (Homo sapiens, UniProt P42574).
T1 sequence (P42574 whole entry): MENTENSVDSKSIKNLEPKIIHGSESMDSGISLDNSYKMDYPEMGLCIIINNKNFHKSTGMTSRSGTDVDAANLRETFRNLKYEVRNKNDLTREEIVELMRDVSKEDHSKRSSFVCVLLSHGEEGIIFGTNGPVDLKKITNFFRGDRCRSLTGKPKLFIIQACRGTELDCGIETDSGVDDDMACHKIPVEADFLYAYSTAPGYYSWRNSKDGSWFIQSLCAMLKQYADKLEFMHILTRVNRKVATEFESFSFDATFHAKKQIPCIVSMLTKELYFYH
The test is classed as functional.

Test [6] deals with T2, Sentrin-specific protease 7 (Homo sapiens, UniProt Q9BQF6).
T2 sequence (Q9BQF6 whole entry): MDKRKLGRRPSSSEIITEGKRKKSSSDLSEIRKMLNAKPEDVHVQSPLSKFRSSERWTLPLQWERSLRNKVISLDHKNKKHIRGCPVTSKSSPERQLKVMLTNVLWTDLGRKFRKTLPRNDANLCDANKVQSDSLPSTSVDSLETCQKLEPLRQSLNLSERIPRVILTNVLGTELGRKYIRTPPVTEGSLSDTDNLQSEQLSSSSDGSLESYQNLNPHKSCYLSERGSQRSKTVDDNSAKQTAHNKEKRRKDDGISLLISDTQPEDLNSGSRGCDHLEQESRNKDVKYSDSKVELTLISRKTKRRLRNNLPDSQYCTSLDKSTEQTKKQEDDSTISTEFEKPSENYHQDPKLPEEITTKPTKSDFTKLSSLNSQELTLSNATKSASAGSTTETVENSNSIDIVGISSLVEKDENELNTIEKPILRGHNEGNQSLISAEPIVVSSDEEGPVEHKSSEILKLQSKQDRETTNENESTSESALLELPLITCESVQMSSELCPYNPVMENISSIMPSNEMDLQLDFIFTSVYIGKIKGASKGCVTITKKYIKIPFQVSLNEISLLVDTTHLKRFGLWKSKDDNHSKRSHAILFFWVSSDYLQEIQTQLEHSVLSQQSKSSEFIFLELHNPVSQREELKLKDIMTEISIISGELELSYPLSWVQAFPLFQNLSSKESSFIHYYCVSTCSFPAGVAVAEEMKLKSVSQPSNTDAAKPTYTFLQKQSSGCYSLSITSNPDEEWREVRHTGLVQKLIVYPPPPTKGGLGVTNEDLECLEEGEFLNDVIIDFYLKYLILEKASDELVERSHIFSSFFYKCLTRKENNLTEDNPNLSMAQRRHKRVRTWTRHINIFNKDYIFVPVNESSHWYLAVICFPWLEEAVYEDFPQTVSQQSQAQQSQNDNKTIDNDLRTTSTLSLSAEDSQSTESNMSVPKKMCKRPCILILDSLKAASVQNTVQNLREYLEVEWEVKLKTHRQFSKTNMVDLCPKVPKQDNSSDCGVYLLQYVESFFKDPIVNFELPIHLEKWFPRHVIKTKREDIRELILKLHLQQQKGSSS
It counts as functional.

Test [7] deals with T3, Sentrin-specific protease 6 (Homo sapiens, UniProt Q9GZR1).
T3 sequence (Q9GZR1 whole entry): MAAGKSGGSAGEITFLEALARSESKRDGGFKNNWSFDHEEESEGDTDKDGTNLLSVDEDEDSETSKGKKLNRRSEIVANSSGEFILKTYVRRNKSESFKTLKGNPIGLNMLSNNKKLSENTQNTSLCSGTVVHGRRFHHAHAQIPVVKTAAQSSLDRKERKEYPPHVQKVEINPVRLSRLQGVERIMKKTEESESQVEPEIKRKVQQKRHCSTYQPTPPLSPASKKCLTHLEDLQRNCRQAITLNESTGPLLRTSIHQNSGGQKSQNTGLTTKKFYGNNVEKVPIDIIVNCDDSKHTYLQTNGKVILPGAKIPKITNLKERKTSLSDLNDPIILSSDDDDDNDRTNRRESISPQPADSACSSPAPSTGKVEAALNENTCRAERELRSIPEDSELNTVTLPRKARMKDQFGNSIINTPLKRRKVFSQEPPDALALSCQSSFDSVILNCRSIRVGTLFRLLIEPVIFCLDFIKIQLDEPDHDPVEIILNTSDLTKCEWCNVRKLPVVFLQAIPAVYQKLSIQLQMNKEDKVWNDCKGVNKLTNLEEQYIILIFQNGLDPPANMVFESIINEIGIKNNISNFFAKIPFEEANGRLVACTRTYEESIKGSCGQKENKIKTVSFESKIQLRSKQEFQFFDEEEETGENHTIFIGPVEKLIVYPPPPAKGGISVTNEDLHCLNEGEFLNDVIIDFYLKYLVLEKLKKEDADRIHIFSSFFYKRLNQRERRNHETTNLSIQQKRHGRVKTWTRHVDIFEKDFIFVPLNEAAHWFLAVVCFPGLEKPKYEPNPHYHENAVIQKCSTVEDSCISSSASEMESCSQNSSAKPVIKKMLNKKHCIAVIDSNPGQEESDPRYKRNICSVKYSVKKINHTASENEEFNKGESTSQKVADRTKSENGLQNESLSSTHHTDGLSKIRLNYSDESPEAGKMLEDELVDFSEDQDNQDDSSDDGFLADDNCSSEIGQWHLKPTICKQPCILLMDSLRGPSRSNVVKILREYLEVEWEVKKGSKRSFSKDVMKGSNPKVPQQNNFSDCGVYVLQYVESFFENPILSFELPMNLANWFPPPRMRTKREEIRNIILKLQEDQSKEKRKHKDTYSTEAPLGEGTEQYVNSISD
The test is classed as functional.

For test [8], the target named is T4, Sentrin-specific protease 8 (Homo sapiens, UniProt Q96LD8).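 Further: luminescence read-out of SENP8 inhibition, dose-response confirmation following an ultra-high-throughput screen.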
T4 sequence (Q96LD8 whole entry): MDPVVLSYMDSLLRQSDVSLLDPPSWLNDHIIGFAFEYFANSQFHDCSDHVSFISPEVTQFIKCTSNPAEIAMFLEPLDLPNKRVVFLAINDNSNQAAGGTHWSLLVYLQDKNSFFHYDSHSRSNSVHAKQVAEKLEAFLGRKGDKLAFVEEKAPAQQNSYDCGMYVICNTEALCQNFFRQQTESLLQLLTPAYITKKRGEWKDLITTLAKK
The test is classed as functional.

The target in test [9] is T5, Endoribonuclease toxin MazF (Escherichia coli K-12, UniProt P0AE70).
T5 sequence (P0AE70 whole entry): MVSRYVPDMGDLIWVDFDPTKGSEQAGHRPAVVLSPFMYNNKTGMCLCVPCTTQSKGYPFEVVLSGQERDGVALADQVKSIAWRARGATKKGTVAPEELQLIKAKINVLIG
The experiment in a line: MazF toxin RNase activators, dose response, biochemical, fluorescence, single-stranded RNA substrate, uHTS hits (AID 588481). The test is classed as functional.

Test [10] addresses T5, Endoribonuclease toxin MazF. Put plainly: fluorescent RNA oligo signal without MazF, dose response, counter-screen for MazEF activator project, biochemical, fluorescence, single-stranded RNase substrate (AID 588502). The test is classed as functional. On the technique in general: The purpose of a counterscreen is to sort out artefacts and off-target activity.
The target of test [11] is T6, Protein skinhead-1 (Caenorhabditis elegans, UniProt P34707).
T6 sequence (P34707 whole entry): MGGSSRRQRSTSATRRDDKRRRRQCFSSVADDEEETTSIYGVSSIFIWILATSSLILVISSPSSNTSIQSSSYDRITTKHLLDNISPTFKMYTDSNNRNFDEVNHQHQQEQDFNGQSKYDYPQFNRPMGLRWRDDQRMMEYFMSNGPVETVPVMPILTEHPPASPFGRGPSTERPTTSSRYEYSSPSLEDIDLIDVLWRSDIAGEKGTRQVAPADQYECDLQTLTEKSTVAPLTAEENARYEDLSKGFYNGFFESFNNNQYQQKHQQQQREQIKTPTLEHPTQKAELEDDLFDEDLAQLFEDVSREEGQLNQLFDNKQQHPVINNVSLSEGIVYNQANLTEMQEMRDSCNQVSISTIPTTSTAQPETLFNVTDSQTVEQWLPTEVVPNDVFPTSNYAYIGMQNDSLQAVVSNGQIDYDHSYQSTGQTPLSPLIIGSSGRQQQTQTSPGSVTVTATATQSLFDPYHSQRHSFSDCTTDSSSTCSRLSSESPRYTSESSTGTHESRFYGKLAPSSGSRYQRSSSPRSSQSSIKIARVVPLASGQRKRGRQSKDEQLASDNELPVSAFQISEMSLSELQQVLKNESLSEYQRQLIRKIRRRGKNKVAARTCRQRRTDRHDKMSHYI
It counts as functional.

Test [12] has as its target T7, RNA-binding protein pos-1 (Caenorhabditis elegans, UniProt G5EF15).
T7 sequence (G5EF15 whole entry): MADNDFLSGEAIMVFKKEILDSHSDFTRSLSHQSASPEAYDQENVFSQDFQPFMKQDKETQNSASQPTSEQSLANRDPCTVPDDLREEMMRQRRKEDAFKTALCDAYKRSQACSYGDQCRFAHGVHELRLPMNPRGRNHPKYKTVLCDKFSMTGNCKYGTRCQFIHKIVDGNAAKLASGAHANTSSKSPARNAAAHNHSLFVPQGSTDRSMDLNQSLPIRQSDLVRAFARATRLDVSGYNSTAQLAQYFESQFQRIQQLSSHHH
The experiment in a line: inhibitors of POS-1/mex-3 RNA binding, dose response, biochemical, fluorescence polarization (AID 1964).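 Further: purified POS-1 fused to maltose binding protein made in E. coli; potency of compounds blocking POS-1 binding to fluorescent RNA.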

Test [13] concerns the target T8, Zinc finger protein mex-5 (Caenorhabditis elegans, UniProt Q9XUB2).
T8 sequence (Q9XUB2 whole entry): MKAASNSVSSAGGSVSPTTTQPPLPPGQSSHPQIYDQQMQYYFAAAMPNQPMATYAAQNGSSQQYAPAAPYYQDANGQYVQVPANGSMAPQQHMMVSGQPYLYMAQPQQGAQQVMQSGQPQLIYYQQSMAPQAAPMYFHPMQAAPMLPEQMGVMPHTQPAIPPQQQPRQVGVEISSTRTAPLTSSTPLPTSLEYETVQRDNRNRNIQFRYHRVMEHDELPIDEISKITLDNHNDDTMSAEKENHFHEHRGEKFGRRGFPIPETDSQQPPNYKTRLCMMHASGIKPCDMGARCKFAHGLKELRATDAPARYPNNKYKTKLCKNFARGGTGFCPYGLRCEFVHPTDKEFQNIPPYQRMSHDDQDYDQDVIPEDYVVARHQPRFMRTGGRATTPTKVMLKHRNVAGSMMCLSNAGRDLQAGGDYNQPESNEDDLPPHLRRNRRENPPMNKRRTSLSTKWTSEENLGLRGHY
Put plainly: MEX-5/TCR-2 RNA interaction inhibitors, dose response, biochemical, C. elegans, fluorescence polarization (AID 1960).

Test [14] deals with Genome polyprotein (dengue virus type 2, UniProt P29990). Put plainly: Dengue-2 NS5 methyltransferase inhibitors, primary screen, biochemical, confirmation dose response (AID 588689). The test is classed as functional.
Test [15] concerns the target T9, Hepatocyte nuclear factor 4-alpha (Homo sapiens, UniProt P41235).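 Further: biochemical luminescence-based dose-response counterscreen measuring inhibition of HNF4 dimerization, run alongside a screen for blockers of ABHD5–perilipin-5 interaction; split luciferase complementation of HNF4 fusion proteins in cell lysate measuring dimerization.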
T9 sequence (P41235 whole entry): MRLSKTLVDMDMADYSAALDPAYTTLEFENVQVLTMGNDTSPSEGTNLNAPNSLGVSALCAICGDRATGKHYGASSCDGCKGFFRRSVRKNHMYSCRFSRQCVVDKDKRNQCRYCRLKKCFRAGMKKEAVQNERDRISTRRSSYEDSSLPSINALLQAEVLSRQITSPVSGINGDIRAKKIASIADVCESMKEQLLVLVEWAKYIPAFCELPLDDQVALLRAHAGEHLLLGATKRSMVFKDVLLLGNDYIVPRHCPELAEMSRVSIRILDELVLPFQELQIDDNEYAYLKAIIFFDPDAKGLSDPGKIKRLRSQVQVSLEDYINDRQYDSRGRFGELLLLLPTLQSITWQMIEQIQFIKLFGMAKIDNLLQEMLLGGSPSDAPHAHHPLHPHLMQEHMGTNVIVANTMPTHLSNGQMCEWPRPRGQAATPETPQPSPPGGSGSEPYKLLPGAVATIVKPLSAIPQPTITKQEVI
It counts as functional, cell-based.

Calls of active or inactive are those of the source.

26S proteasome non-ATPase regulatory subunit 14, sequence (O00487 whole entry): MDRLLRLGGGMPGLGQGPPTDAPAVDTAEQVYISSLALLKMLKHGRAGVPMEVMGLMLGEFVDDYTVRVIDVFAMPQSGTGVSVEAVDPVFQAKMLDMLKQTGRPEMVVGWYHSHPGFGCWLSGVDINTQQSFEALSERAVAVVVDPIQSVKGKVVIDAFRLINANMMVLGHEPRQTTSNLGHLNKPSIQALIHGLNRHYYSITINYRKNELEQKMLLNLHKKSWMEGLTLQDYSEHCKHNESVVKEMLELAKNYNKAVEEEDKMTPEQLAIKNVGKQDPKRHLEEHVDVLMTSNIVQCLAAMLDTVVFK
72 kDa type IV collagenase, sequence (P08253 whole entry): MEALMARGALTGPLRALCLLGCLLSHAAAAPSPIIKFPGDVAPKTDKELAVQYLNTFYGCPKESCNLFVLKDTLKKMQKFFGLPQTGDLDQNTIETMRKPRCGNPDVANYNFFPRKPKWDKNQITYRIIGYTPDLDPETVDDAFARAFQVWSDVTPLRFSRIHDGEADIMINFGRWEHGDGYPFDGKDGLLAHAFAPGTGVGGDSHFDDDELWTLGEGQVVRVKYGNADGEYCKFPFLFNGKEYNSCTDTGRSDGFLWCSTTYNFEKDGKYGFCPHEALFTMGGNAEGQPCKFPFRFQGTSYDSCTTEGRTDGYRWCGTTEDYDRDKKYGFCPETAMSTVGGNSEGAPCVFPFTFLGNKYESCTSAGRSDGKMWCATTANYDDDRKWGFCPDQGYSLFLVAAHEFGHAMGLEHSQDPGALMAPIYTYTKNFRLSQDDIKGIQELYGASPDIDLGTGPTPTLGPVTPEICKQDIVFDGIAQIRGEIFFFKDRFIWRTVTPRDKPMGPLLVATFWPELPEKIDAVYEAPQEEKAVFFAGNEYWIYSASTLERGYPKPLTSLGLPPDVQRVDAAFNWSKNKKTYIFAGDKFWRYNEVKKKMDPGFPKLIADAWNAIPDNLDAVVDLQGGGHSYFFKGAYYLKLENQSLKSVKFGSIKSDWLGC
Genome polyprotein, sequence (P29990 2492-3391 limits assumed): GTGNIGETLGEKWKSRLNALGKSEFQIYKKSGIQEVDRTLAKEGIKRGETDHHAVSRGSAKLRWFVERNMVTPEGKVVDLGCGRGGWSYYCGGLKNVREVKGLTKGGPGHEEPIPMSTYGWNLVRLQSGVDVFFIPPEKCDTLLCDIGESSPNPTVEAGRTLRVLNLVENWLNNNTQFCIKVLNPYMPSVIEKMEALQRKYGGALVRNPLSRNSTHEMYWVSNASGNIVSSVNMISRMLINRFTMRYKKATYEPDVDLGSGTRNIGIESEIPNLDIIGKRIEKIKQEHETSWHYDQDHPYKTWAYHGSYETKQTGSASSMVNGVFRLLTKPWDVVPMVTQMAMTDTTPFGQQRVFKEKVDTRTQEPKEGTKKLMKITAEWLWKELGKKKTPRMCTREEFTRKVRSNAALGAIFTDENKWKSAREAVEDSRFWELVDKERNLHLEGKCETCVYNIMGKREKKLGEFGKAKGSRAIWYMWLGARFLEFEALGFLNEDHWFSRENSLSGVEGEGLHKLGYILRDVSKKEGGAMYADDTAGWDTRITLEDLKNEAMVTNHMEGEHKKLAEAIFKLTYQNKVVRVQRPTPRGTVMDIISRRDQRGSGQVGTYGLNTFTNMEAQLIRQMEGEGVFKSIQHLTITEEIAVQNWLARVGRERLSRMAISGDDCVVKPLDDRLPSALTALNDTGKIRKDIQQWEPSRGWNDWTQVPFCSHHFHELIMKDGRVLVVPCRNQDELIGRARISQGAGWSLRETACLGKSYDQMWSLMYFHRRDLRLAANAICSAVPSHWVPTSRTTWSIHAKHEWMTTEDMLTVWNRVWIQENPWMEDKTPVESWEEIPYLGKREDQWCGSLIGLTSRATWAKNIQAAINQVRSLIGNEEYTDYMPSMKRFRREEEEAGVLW

Regarding `COc1ccc(/C=C2/SC(=S)N(CCCC(=O)Nc3ccc(O)cc3)C2=O)cc1OC`, the IC50 was > 80 µM (inactive) in [1], 25.2 µM (active) in test [2], > 100 µM (inactive) in test [3] and 31.8 µM (active) in [4].

With `CN(C)c1ccc(C(=O)/C=C/c2ccccc2)cc1`, the IC50 in [5] was 8.33 µM (active); in test [6], 5.32 µM (active); in test [7], 11.6 µM (active); in test [8], 14.3 µM (active); in [11], > 100 µM (inactive). Besides, the EC50 in test [9] and in [10] was > 99 µM (inactive) throughout.

For `CCOc1ccc(N2C(=O)/C(=C/Nc3ccnn3Cc3ccncc3)c3ccccc3C2=O)cc1`, the EC50 in [12] and in [13] was > 300 µM (not active) in each case. Moreover, the IC50 was 23.9 µM (active) in [2], > 100 µM (inactive) in test [3] and 24.6 µM (active) in [4].

With `COc1cc(/C=C2/SC(=S)N(CC(=O)Nc3nc4ccccc4s3)C2=O)cc(OC)c1OC`, the IC50 is 20.2 µM (active) in test [2], > 100 µM (inactive) in [3] and 23.5 µM (active) in test [4].

With `CC(=O)OCC1=C(C(=O)O)N2C(=O)C(NC(=O)CCn3nc(C(F)(F)F)c(Br)c3C3CC3)C2SC1` (stereo not given), the IC50 was 54.8 µM (active) in test [14] and 17.7 µM (inactive) in [15].

With `CCCCn1c(/N=C/c2ccc(N(C)C)cc2)nc2ccccc21`, the IC50 was 5.14 µM (active) in test [2], > 100 µM (inactive) in test [3] and 7.12 µM (active) in test [4].

Consider `O=C(NCc1ccccc1)C(c1ccc(-c2ccccc2)cc1)n1c(=O)c(-c2ccco2)nc2ccccc21` (stereo not given), for which the IC50 in test [15] was 3.34 µM (active).
